Like-named read-outs stand apart in the source and are kept apart here.
Test system: human visceral preadipocytes
Test: cells
Settings: for IC50: Homo sapiens
Experimental: Human visceral preadipocytes were seeded in 96-well white clear bottom plates at 10,000 cells per well in 100 μl pre-adipocyte medium and incubated overnight at 37° C. 5% CO2. On the following day, adipogenic differentiation was induced by addition of 100 μl/well differentiation medium and incubation continued for 5 days. Adipogenic differentiation was verified by microscopic evaluation, addition of adipored reagents and fluorescent measurement at Ex485 nm/Em572 nm. […] Staurosporine (1 μM) and 0.2% DMSO were used as controls. Plates were incubated at 37° C. 5% CO2 for 2, 6 and 24 hours. Following incubation, cytotoxicity was measured using Cell Titer Glo 2.0 (Promega).
Test Item RZL-12 (1-300 μM) was prepared on the day of the testing as 150 mM stock solutions in DMSO. The 150 mM represents a 500×stock of the highest desired tested concentration. The 150 mM stock solution was first serially diluted in DMSO to acquire 500×stock solutions for each of the RZL-012 concentrations. The 500×stock solutions were then diluted 1:25 in medium to acquire 20×intermediate stock solutions. Finally, the 20×intermediate stock solutions were further diluted 1:20 in the assay (on the plate) that included seeded cells.
The 600 μM represents a 20× stock of the highest desired tested concentration. […] Finally, the 20×intermediate stock solutions were further diluted 1:20 in the assay plate that included seeded cells.
Human visceral pre-adipocytes (HPrAD-vis): HPrAD-vis cells (Lonza cat #PT-5005) were thawed at 37° C. and transferred into 50 ml tubes containing pre-adipocytes PGM-2 growth medium (PBM-2, 10% FBS, 1-glutamine, GA-1000). Cells were centrifuged at 300 g for 10 minutes, the supernatant was removed (Leaving about 1 ml of wash medium for not disrupting the cells) and 2 ml fresh PGM-2 medium was added. After resuspension, cells were counted and seeded in T-75 and T25 flasks at a density of 9,000 cells/cm^2 ([…], 225,000 cells/T25 flask). Medium was changed every 2-3 days until reached confluence of 70%.
Cells were sub-cultured only once, as soon as they reached 70% confluence. For this purpose, the culture medium of each flask was removed and cells were washed once with 5 ml PBS. The flask was shaken to ensure that the entire surface was covered and the PBS was removed. Then, 3 ml/T75 flask or 1 ml/T25 flask of fresh dedicated Trypsin/EDTA solution (from Lonza) was added and the flasks were incubated for 3-4 minutes at RT until ˜90% cells were detached. The Trypsin/EDTA solution was then neutralized by addition of 6 ml/T75 flask or 3 ml/T25 flask of full PGM-2 growth medium. Cells were collected in 50 ml tubes and centrifuged 10 minutes at 300 g. The supernatant was removed and the cells were resuspended in 3 ml fresh medium. Cells were then counted using a haemacytometer slide after being diluted 1:2 in trypan blue (SIGMA). For sub-culturing, cells were seeded in new T75 flasks at a density of 9,000 cells/cm^2 containing 15 ml fresh growth medium. Alternatively, the cells were seeded in 96-well culture plates at a density of 10,000 cells/well for the cell treatments.
HPrAD-vis cells: HPrAD-vis passaged once were seeded in 96-well plates as described above (10000cells/well in 100 μl medium) and allowed to settle overnight at 37° C., 5% CO2. Following day, adipogenic differentiation was induced by addition of 100 μl/well differentiation medium and incubated for 5 days. Adipogenic differentiation was verified by microscopic evaluation, addition of adipored reagents and fluorescent measurement at Ex485 nm/Em572 nm. In the morning of day 6, test and reference items were prepared as described above. Cells' medium was replaced with 90 μl fresh differentiation medium. […] Staurosporine (1 μM) and 0.2% DMSO were used as controls. Plates were incubated at 37° C. 5% CO2 for 2, 6 and 24 hours. Following incubation, cell viability was determined using the CellTiter-Gg® viability reagent (Promega) with reading of plates for luminescence. […]

C[N+](C)(C)CCCCCn1c2ccc(Br)cc2c2cc(Br)ccc21.[Cl-] [RZL-012, 5-(3,6-dibromo-9H-carbazol-9-yl)-N,N,N-trimethylpentan-1-aminium chloride]
IC50 (2 h, read-out: IC50 of RZL-12 in the presence of Collagenase, Collagenase 0, 2 h incubation): 31.4 µM
IC50 (2 h, read-out: IC50 of RZL-12 in the presence of Collagenase, Collagenase 0.1 μM, 2 h incubation): 32.4 µM
IC50 (2 h, read-out: IC50 of RZL-12 in the presence of Collagenase, Collagenase 0.3 μM, 2 h incubation): 35.7 µM
IC50 (2 h, read-out: IC50 of RZL-12 in the presence of Collagenase, Collagenase 1 μM, 2 h incubation): 32.6 µM
IC50 (2 h, read-out: IC50 of RZL-12 in the presence of Collagenase, Collagenase 3 μM, 2 h incubation): ~31.2 µM
IC50 (2 h, read-out: IC50 of RZL-12 in the presence of Collagenase, Collagenase 10 μM, 2 h incubation): 71.3 µM
IC50 (2 h, read-out: IC50 of RZL-12 in the presence of Collagenase, Collagenase 30 μM, 2 h incubation): ~93.2 µM
IC50 (6 h, read-out: IC50 of RZL-12 in the presence of Collagenase, Collagenase 0, 6 h incubation): 34.6 µM
IC50 (6 h, read-out: IC50 of RZL-12 in the presence of Collagenase, Collagenase 0.1 μM, 6 h incubation): 44.3 µM
IC50 (6 h, read-out: IC50 of RZL-12 in the presence of Collagenase, Collagenase 0.3 μM, 6 h incubation): 45.1 µM
IC50 (6 h, read-out: IC50 of RZL-12 in the presence of Collagenase, Collagenase 1 μM, 6 h incubation): 44.2 µM
IC50 (6 h, read-out: IC50 of RZL-12 in the presence of Collagenase, Collagenase 3 μM, 6 h incubation): ~30.5 µM
IC50 (6 h, read-out: IC50 of RZL-12 in the presence of Collagenase, Collagenase 10 μM, 6 h incubation): 36.5 µM
IC50 (6 h, read-out: IC50 of RZL-12 in the presence of Collagenase, Collagenase 30 μM, 6 h incubation): 38.8 µM
IC50 (24 h, read-out: IC50 of RZL-12 in the presence of Collagenase, Collagenase 0, 24 h incubation): 22.8 µM
IC50 (24 h, read-out: IC50 of RZL-12 in the presence of Collagenase, Collagenase 0.1 μM, 24 h incubation): 38 µM
IC50 (24 h, read-out: IC50 of RZL-12 in the presence of Collagenase, Collagenase 0.3 μM, 24 h incubation): 38.5 µM
IC50 (24 h, read-out: IC50 of RZL-12 in the presence of Collagenase, Collagenase 1 μM, 24 h incubation): ~36.1 µM
IC50 (24 h, read-out: IC50 of RZL-12 in the presence of Collagenase, Collagenase 3 μM, 24 h incubation): 22.9 µM
IC50 (24 h, read-out: IC50 of RZL-12 in the presence of Collagenase, Collagenase 10 μM, 24 h incubation): 28.8 µM
IC50 (24 h, read-out: IC50 of RZL-12 in the presence of Collagenase, Collagenase 30 μM, 24 h incubation): 28.8 µM
IC50 (read-out: IC50 when combined, RZL-012 and collagenase combined): 0.02 µM
Average RZL-012 and collagenase induced cell death (% vs untreated cells) (RZL12 0.01 μM, Collagenase 0, 2 h of incubation): 10.0%
Average RZL-012 and collagenase induced cell death (% vs untreated cells) (RZL12 0.01 μM, Collagenase 0.1 μM, 2 h of incubation): 6.5%
Average RZL-012 and collagenase induced cell death (% vs untreated cells) (RZL12 0.01 μM, Collagenase 0.3 μM, 2 h of incubation): 0.8%
Average RZL-012 and collagenase induced cell death (% vs untreated cells) (RZL12 0.01 μM, Collagenase 1 μM, 2 h of incubation): 5.3%
Average RZL-012 and collagenase induced cell death (% vs untreated cells) (RZL12 0.01 μM, Collagenase 3 μM, 2 h of incubation): 20.5%
Average RZL-012 and collagenase induced cell death (% vs untreated cells) (RZL12 0.01 μM, Collagenase 10 μM, 2 h of incubation): 30.3%
Average RZL-012 and collagenase induced cell death (% vs untreated cells) (RZL12 0.01 μM, Collagenase 30 μM, 2 h of incubation): 46.4%
Average RZL-012 and collagenase induced cell death (% vs untreated cells) (RZL12 1 μM, Collagenase 0, 2 h of incubation): 7.0%
Average RZL-012 and collagenase induced cell death (% vs untreated cells) (RZL12 1 μM, Collagenase 0, 24 h of incubation): 4.88%
Average RZL-012 and collagenase induced cell death (% vs untreated cells) (RZL12 1 μM, Collagenase 0.1 μM, 2 h of incubation): 6.5%
Average RZL-012 and collagenase induced cell death (% vs untreated cells) (RZL12 1 μM, Collagenase 0.1 μM, 24 h of incubation): 8.18%
Average RZL-012 and collagenase induced cell death (% vs untreated cells) (RZL12 1 μM, Collagenase 0.3 μM, 2 h of incubation): 3.0%
Average RZL-012 and collagenase induced cell death (% vs untreated cells) (RZL12 1 μM, Collagenase 0.3 μM, 24 h of incubation): −0.25%
Average RZL-012 and collagenase induced cell death (% vs untreated cells) (RZL12 1 μM, Collagenase 1 μM, 2 h of incubation): 2.0%
Average RZL-012 and collagenase induced cell death (% vs untreated cells) (RZL12 1 μM, Collagenase 1 μM, 24 h of incubation): 16.48%
Average RZL-012 and collagenase induced cell death (% vs untreated cells) (RZL12 1 μM, Collagenase 3 μM, 2 h of incubation): 19.2%
Average RZL-012 and collagenase induced cell death (% vs untreated cells) (RZL12 1 μM, Collagenase 3 μM, 24 h of incubation): 28.74%
Average RZL-012 and collagenase induced cell death (% vs untreated cells) (RZL12 1 μM, Collagenase 10 μM, 2 h of incubation): 29.9%
Average RZL-012 and collagenase induced cell death (% vs untreated cells) (RZL12 1 μM, Collagenase 10 μM, 24 h of incubation): 64.29%
Average RZL-012 and collagenase induced cell death (% vs untreated cells) (RZL12 1 μM, Collagenase 30 μM, 2 h of incubation): 48.0%
Average RZL-012 and collagenase induced cell death (% vs untreated cells) (RZL12 1 μM, Collagenase 30 μM, 24 h of incubation): 78.45%
Average RZL-012 and collagenase induced cell death (% vs untreated cells) (RZL12 3 μM, Collagenase 0, 2 h of incubation): 5.9%
Average RZL-012 and collagenase induced cell death (% vs untreated cells) (RZL12 3 μM, Collagenase 0, 24 h of incubation): 6.40%
Average RZL-012 and collagenase induced cell death (% vs untreated cells) (RZL12 3 μM, Collagenase 0.1 μM, 2 h of incubation): −1.6%
Average RZL-012 and collagenase induced cell death (% vs untreated cells) (RZL12 3 μM, Collagenase 0.1 μM, 24 h of incubation): 3.62%
Average RZL-012 and collagenase induced cell death (% vs untreated cells) (RZL12 3 μM, Collagenase 0.3 μM, 2 h of incubation): 1.1%
Average RZL-012 and collagenase induced cell death (% vs untreated cells) (RZL12 3 μM, Collagenase 0.3 μM, 24 h of incubation): 2.09%
Average RZL-012 and collagenase induced cell death (% vs untreated cells) (RZL12 3 μM, Collagenase 1 μM, 2 h of incubation): 6.1%
Average RZL-012 and collagenase induced cell death (% vs untreated cells) (RZL12 3 μM, Collagenase 1 μM, 24 h of incubation): 16.21%
Average RZL-012 and collagenase induced cell death (% vs untreated cells) (RZL12 3 μM, Collagenase 3 μM, 2 h of incubation): 18.0%
Average RZL-012 and collagenase induced cell death (% vs untreated cells) (RZL12 3 μM, Collagenase 3 μM, 24 h of incubation): 27.36%
Average RZL-012 and collagenase induced cell death (% vs untreated cells) (RZL12 3 μM, Collagenase 10 μM, 2 h of incubation): 26.4%
Average RZL-012 and collagenase induced cell death (% vs untreated cells) (RZL12 3 μM, Collagenase 10 μM, 24 h of incubation): 63.40%
Average RZL-012 and collagenase induced cell death (% vs untreated cells) (RZL12 3 μM, Collagenase 30 μM, 2 h of incubation): 47.6%
Average RZL-012 and collagenase induced cell death (% vs untreated cells) (RZL12 3 μM, Collagenase 30 μM, 24 h of incubation): 77.35%

Reference: US20240041827A1, “COMPOSITIONS FOR THE TREATMENT OF FAT RELATED CONDITIONS AND DISORDERS” (priority 2020, published 2024)
